The results in this text go back to patent publication US11987588B2, “Modulators of the beta-3 adrenergic receptor useful for the treatment or prevention of heart failure and disorders related thereto” (Arena Pharmaceuticals, Inc., priority 2017, dated 2024).

SMILES strings stand for the structures.

For orientation: IC50 means the concentration needed to halve the response being measured.

In this assay the target is Beta-3 Adrenergic Receptor (Homo sapiens (Human), UniProt P13945). In words: Homogeneous Time-Resolved Fluorescence (HTRF) cAMP antagonist assay, IC50 determination. Conditions: CHO-K1 cells stably expressing recombinant receptor, isoproterenol at EC90. The assay is classed as cell-based. The method in brief: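 In this functional readout, recombinant CHO-K1 cells received compound, then isoproterenol at its EC90. After 1 h at room temperature, cAMP levels were determined by HTRF using an on-plate standard curve, and IC50 values were fitted.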
Sequence of Beta-3 Adrenergic Receptor (P13945 whole entry, species assumed): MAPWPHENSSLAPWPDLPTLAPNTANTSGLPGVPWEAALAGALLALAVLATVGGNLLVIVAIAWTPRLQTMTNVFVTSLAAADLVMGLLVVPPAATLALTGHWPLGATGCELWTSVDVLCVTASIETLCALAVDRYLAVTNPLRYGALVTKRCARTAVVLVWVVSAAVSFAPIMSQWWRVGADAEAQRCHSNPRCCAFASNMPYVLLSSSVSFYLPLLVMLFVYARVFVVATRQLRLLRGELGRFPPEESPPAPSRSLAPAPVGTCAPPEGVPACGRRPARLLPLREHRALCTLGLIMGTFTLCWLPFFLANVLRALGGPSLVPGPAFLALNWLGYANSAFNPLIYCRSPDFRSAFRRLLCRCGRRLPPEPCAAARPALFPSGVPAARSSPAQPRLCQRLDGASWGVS
`CN1CCOc2ncc(S(=O)(=O)N3CCC4(CC3)C[C@@H](NC[C@H](O)COc3cccc(S(N)(=O)=O)c3)CO4)cc21` [Compound 458, 3-((S)-2-hydroxy-3-((R)-8-(1-methyl-2,3-dihydro-1H-pyrido[2,3-b][1,4]oxazin-7-ylsulfonyl)-1-oxa-8-azaspiro[4.5]decan-3-ylamino)propoxy)benzenesulfonamide]: the IC50 was determined as 45.7 nM.
As for `CNS(=O)(=O)c1cccc(OC[C@@H](O)CNC2COC3(CCN(S(=O)(=O)c4ccc5c(c4)CCC(C)(C)O5)CC3)C2)c1` (stereo partly drawn) [Compound 127, 3-((2S)-3-(8-(2,2-dimethylchroman-6-ylsulfonyl)-1-oxa-8-azaspiro[4.5]decan-3-ylamino)-2-hydroxypropoxy)-N-methylbenzenesulfonamide], the figure is 14.9 nM; as for `CCN1CCOc2ccc(S(=O)(=O)N3CCC4(CC3)C[C@@H](NC[C@H](O)COc3cccc(S(=O)(=O)NC)c3)CO4)cc21` [Compound 351, 3-((S)-3-((R)-8-(4-ethyl-3,4-dihydro-2H-benzo[b][1,4]oxazin-6-ylsulfonyl)-1-oxa-8-azaspiro[4.5]decan-3-ylamino)-2-hydroxypropoxy)-N-methylbenzenesulfonamide], 38.6 nM; as for `CNS(=O)(=O)c1cccc(OC[C@@H](O)CN[C@H]2COC3(CCN(c4nccc(C(=O)O)n4)CC3)C2)c1` [Compound 582, 2-((R)-3-((S)-2-hydroxy-3-(3-(N-methylsulfamoyl)phenoxy)propylamino)-1-oxa-8-azaspiro[4.5]decan-8-yl)pyrimidine-4-carboxylic acid], 100000 nM.
For `CNS(=O)(=O)c1cccc(OC[C@@H](O)CN[C@H]2COC3(CCN(S(=O)(=O)c4cc(-c5ccc(CN)cc5)ccc4OC)CC3)C2)c1` [Compound 385, 3-((S)-3-((R)-8-(4′-(aminomethyl)-4-methoxybiphenyl-3-ylsulfonyl)-1-oxa-8-azaspiro[4.5]decan-3-ylamino)-2-hydroxypropoxy)-N-methylbenzenesulfonamide], the 50% inhibitory concentration (IC50) came to 11 nM.
Regarding `CNS(=O)(=O)c1cccc(OC[C@@H](O)CN[C@H]2COC3(CCN(S(=O)(=O)c4cccc(-c5ccc(N)nc5)c4)CC3)C2)c1` [Compound 287, 3-((S)-3-((R)-8-(3-(6-aminopyridin-3-yl)phenylsulfonyl)-1-oxa-8-azaspiro[4.5]decan-3-ylamino)-2-hydroxypropoxy)-N-methylbenzenesulfonamide], the 50% inhibitory concentration (IC50) was found to be 21.9 nM.
`CCOc1ccc(S(=O)(=O)N2CCC3(CC2)CC(NC[C@H](O)COc2cccc(S(=O)(=O)NC)c2)CO3)cc1` (stereo partly drawn) [Compound 136, 3-((2S)-3-(8-(4-ethoxyphenylsulfonyl)-1-oxa-8-azaspiro[4.5]decan-3-ylamino)-2-hydroxypropoxy)-N-methylbenzenesulfonamide]: the IC50 is 23.5 nM.
With `CNS(=O)(=O)c1cccc(OC[C@@H](O)CNC2COC3(CCN(S(=O)(=O)c4ccc(-c5cccnc5)cc4)CC3)C2)c1` (stereo partly drawn) [Compound 407, 3-((2S)-2-hydroxy-3-(8-(4-(pyridin-3-yl)phenylsulfonyl)-1-oxa-8-azaspiro[4.5]decan-3-ylamino)propoxy)-N-methylbenzenesulfonamide], the 50% inhibitory concentration (IC50) came to 23 nM.
In the case of `CNS(=O)(=O)c1cccc(OC[C@@H](O)CN[C@H]2COC3(CCN(S(=O)(=O)c4cnc5c(c4)N(CCOCc4ccccc4)CCO5)CC3)C2)c1` [Compound 462, 3-((S)-3-((R)-8-(1-(2-(benzyloxy)ethyl)-2,3-dihydro-1H-pyrido[2,3-b][1,4]oxazin-7-ylsulfonyl)-1-oxa-8-azaspiro[4.5]decan-3-ylamino)-2-hydroxypropoxy)-N-methylbenzenesulfonamide], the IC50 is 107 nM.
With `CNS(=O)(=O)c1cccc(OC[C@@H](O)CNC2COC3(CCN(S(=O)(=O)c4ccc(-c5ccccc5)s4)CC3)C2)c1` (stereo partly drawn) [Compound 187, 3-((2S)-2-hydroxy-3-(8-(5-phenylthiophen-2-ylsulfonyl)-1-oxa-8-azaspiro[4.5]decan-3-ylamino)propoxy)-N-methylbenzenesulfonamide], the IC50 came out at 7.72 nM.
Regarding `CCNS(=O)(=O)c1cccc(OC[C@@H](O)CNC2COC3(CCN(S(=O)(=O)c4ccc(OC)c(C)c4)CC3)C2)c1` (stereo partly drawn) [Compound 225, N-ethyl-3-((2S)-2-hydroxy-3-(8-(4-methoxy-3-methylphenylsulfonyl)-1-oxa-8-azaspiro[4.5]decan-3-ylamino)propoxy)benzenesulfonamide], the concentration for half-maximal inhibition (IC50) was 186 nM.
As for `CNS(=O)(=O)c1cccc(OC[C@@H](O)CN[C@H]2COC3(CCN(S(=O)(=O)c4cccc(-c5ccc(S(N)(=O)=O)cc5)c4)CC3)C2)c1` [Compound 292, 3′-((R)-3-((S)-2-hydroxy-3-(3-(N-methylsulfamoyl)phenoxy)propylamino)-1-oxa-8-azaspiro[4.5]decan-8-ylsulfonyl)biphenyl-4-sulfonamide], the figure is 30.1 nM; as for `CCOCCNS(=O)(=O)c1cccc(OC[C@@H](O)CNC2COC3(CCN(S(=O)(=O)c4ccc5ccccc5c4)CC3)C2)c1` (stereo partly drawn) [Compound 47, N-(2-ethoxyethyl)-3-((2S)-2-hydroxy-3-(8-(naphthalen-2-ylsulfonyl)-1-oxa-8-azaspiro[4.5]decan-3-ylamino)propoxy)benzenesulfonamide], 155 nM.
Turning to `CN(C1CC1)S(=O)(=O)c1cccc(OC[C@@H](O)CNC2COC3(CCN(S(=O)(=O)c4ccc5ccccc5c4)CC3)C2)c1` (stereo partly drawn) [Compound 90, N-cyclopropyl-3-((2S)-2-hydroxy-3-(8-(naphthalen-2-ylsulfonyl)-1-oxa-8-azaspiro[4.5]decan-3-ylamino)propoxy)-N-methylbenzenesulfonamide], the IC50 is 49.2 nM.
For `CNS(=O)(=O)c1cccc(OC[C@@H](O)CNC2COC3(CCN(S(=O)(=O)c4ccc(OC)c(-c5ccc(CN)cc5)c4)CC3)C2)c1` (stereo partly drawn) [Compound 366, 3-((2S)-3-(8-(4′-(aminomethyl)-6-methoxybiphenyl-3-ylsulfonyl)-1-oxa-8-azaspiro[4.5]decan-3-ylamino)-2-hydroxypropoxy)-N-methylbenzenesulfonamide], the half-inhibitory concentration (IC50) turned out to be 27.5 nM.
In the case of `CNS(=O)(=O)c1cccc(OC[C@@H](O)CNC2COC3(CCN(S(=O)(=O)c4cccc(-c5ccc(CNCCN(C)C)cc5)c4)CC3)C2)c1` (stereo partly drawn) [Compound 305, 3-((2S)-3-(8-(4′-((2-(dimethylamino)ethylamino)methyl)biphenyl-3-ylsulfonyl)-1-oxa-8-azaspiro[4.5]decan-3-ylamino)-2-hydroxypropoxy)-N-methylbenzenesulfonamide], the half-inhibitory concentration (IC50) was determined as 63.5 nM.
On to `CNS(=O)(=O)c1cccc(OC[C@@H](O)CN[C@@H]2COC3(CCN(S(=O)(=O)c4cccc(-c5ccc(S(N)(=O)=O)cc5)c4)CC3)C2)c1` [Compound 291, 3′-((S)-3-((S)-2-hydroxy-3-(3-(N-methylsulfamoyl)phenoxy)propylamino)-1-oxa-8-azaspiro[4.5]decan-8-ylsulfonyl)biphenyl-4-sulfonamide], for which the IC50 came to 8.84 nM.
As for `CNS(=O)(=O)c1cccc(OC[C@@H](O)CNC2COC3(CCN(S(=O)(=O)c4c(Cl)ccc5nonc45)CC3)C2)c1` (stereo partly drawn) [Compound 262, 3-((2S)-3-(8-(5-chlorobenzo[c][1,2,5]oxadiazol-4-ylsulfonyl)-1-oxa-8-azaspiro[4.5]decan-3-ylamino)-2-hydroxypropoxy)-N-methylbenzenesulfonamide], the IC50 turned out to be 54.3 nM.
`NS(=O)(=O)c1cccc(OC[C@@H](O)CN[C@H]2COC3(CCN(S(=O)(=O)c4c[nH]c5c(F)cccc5c4=O)CC3)C2)c1` [Compound 554, 3-((S)-3-((R)-8-(8-fluoro-4-oxo-1,4-dihydroquinolin-3-ylsulfonyl)-1-oxa-8-azaspiro[4.5]decan-3-ylamino)-2-hydroxypropoxy)benzenesulfonamide]: the IC50 stood at 34.6 nM.
As for `CNS(=O)(=O)c1cccc(OC[C@@H](O)CNC2COC3(CCN(S(=O)(=O)c4cccc(-c5cc[nH]c5)c4)CC3)C2)c1` (stereo partly drawn) [Compound 63, 3-((2S)-3-(8-(3-(1H-pyrrol-3-yl)phenylsulfonyl)-1-oxa-8-azaspiro[4.5]decan-3-ylamino)-2-hydroxypropoxy)-N-methylbenzenesulfonamide], the figure is 19.3 nM.
In the case of `CNS(=O)(=O)c1cccc(OC[C@@H](O)CN[C@H]2COC3(CCN(S(=O)(=O)c4c[nH]c5cccnc45)CC3)C2)c1` [Compound 529, 3-((S)-3-((R)-8-(1H-pyrrolo[3,2-b]pyridin-3-ylsulfonyl)-1-oxa-8-azaspiro[4.5]decan-3-ylamino)-2-hydroxypropoxy)-N-methylbenzenesulfonamide], the concentration for half-maximal inhibition (IC50) was 124 nM.
`CNS(=O)(=O)c1cccc(OC[C@@H](O)CN[C@H]2COC3(CCN(S(=O)(=O)c4cnc5c(c4)CCCO5)CC3)C2)c1` [Compound 483, 3-((S)-3-((R)-8-(3,4-dihydro-2H-pyrano[2,3-b]pyridin-6-ylsulfonyl)-1-oxa-8-azaspiro[4.5]decan-3-ylamino)-2-hydroxypropoxy)-N-methylbenzenesulfonamide]: the half-inhibitory concentration (IC50) turned out to be 41.8 nM.
As for `CNS(=O)(=O)c1cccc(OC[C@@H](O)CNC2COC3(CCN(S(=O)(=O)c4cccc(-c5ccc(CN)s5)c4)CC3)C2)c1` (stereo partly drawn) [Compound 369, 3-((2S)-3-(8-(3-(5-(aminomethyl)thiophen-2-yl)phenylsulfonyl)-1-oxa-8-azaspiro[4.5]decan-3-ylamino)-2-hydroxypropoxy)-N-methylbenzenesulfonamide], the half-maximal inhibitory concentration (IC50) came out at 14.6 nM.
As for `CN(C)S(=O)(=O)c1cccc(OC[C@@H](O)CNC2COC3(CCN(S(=O)(=O)c4ccc5c(c4)NC(=O)CO5)CC3)C2)c1` (stereo partly drawn) [Compound 250, 3-((2S)-2-hydroxy-3-(8-(3-oxo-3,4-dihydro-2H-benzo[b][1,4]oxazin-6-ylsulfonyl)-1-oxa-8-azaspiro[4.5]decan-3-ylamino)propoxy)-N,N-dimethylbenzenesulfonamide], the IC50 was found to be 24.2 nM.
For the molecule `CNS(=O)(=O)c1cccc(OC[C@@H](O)CNC2COC3(CCN(S(=O)(=O)c4ccc5c(c4)N(C(C)C)CCO5)CC3)C2)c1` (stereo partly drawn) [Compound 334, 3-((2S)-2-hydroxy-3-(8-(4-isopropyl-3,4-dihydro-2H-benzo[b][1,4]oxazin-6-ylsulfonyl)-1-oxa-8-azaspiro[4.5]decan-3-ylamino)propoxy)-N-methylbenzenesulfonamide], the half-maximal inhibitory concentration (IC50) is 27.3 nM.
